Laboratory results: patent publication US20040097421A1 (priority 2000, published 2004)

Tests used:
[1] = system: U1285 (small cell lung cancer); assay: cells; type: cell-based; conditions: Homo sapiens, read-out: IC50 (μM), U1285
[2] = system: 8226S (myeloma RPMI 8226); assay: cells; type: cell-based, human; conditions: Homo sapiens, RPMI-8226, 72 h, read-out: IC50 (μM), 8226S
[3] = system: NCI-H125 (non-small cell lung cancer); assay: cells; type: cell-based; conditions: Homo sapiens, NCI-H125, read-out: IC50 (μM), NCI-H125
[4] = system: panel of ten human tumour cell lines; type: cell-based
[5] = system: U-1752 (non-small cell lung cancer); assay: cells; type: cell-based; conditions: Homo sapiens, read-out: IC50 (μM), U-1752
[6] = system: U-1568 (non-small cell lung cancer); assay: cells; type: cell-based; conditions: Homo sapiens, read-out: IC50 (μM), U-1568
[7] = system: U-1906E (small cell lung cancer); assay: cells; type: cell-based; conditions: Homo sapiens, read-out: IC50 (μM), U-1906E
[8] = system: NCI-H611 (non-small cell lung cancer); assay: cells; type: cell-based; conditions: Homo sapiens, read-out: IC50 (μM), NCI-H611
[9] = system: U1906L (small cell lung cancer); assay: cells; type: cell-based; conditions: Homo sapiens, read-out: IC50 (μM), U1906L
[10] = system: U1690 (small cell lung cancer); assay: cells; type: cell-based; conditions: Homo sapiens, read-out: IC50 (μM), U1690
[11] = system: CEM/S (leukemia CCRF-CEM); assay: cells; type: cell-based; conditions: Homo sapiens, 72 h, read-out: IC50 (μM), CEM/S

With CC[C@@]1(O)C(=O)OCc2c1cc1n(c2=O)Cc2cc3c(CN(C)C)c(O)ccc3nc2-1 [Topotecan, topotecan] as the compound, how does the IC50 [1] read?
The IC50 was 0.17 µM.

And the IC50 [2]?
The IC50 was 0.87 µM.

And the IC50 [3]?
The IC50 was no less than 236 µM.

And the “IC50 (μM), MEAN” value [4]?
Its value is 20.0 µM.

What about the IC50 [5] of the same compound?
The IC50 was 28 µM.

And the IC50 [6]?
The IC50 was 115 µM.

And the IC50 [7]?
Its IC50 is 0.08 µM.

What about the IC50 [8] of the same compound?
Its IC50 is no less than 236 µM.

What about the IC50 [9] of the same compound?
Its IC50 is 0.12 µM.

What about the IC50 [10] of the same compound?
Its IC50 is 0.92 µM.

And the IC50 [11]?
Its IC50 is 0.02 µM.
